According to ChEMBL document CHEMBL1124808, “The synthesis and antiallergy activity of 1-(aryloxy)-4-(4-arylpiperazinyl)-2-butanol derivatives” (1990):

Columns and labels:
Type in all cases: functional
[1] = system: Rattus norvegicus; test: Percent change in volume of foot edema of test compound to that of positive control was determined at a dose of 31.6 mg/kg in rat; -42/-81
[2] = system: Rattus norvegicus; test: Percent change in volume of foot edema of test compound to that of positive control was determined at a dose of 31.6 mg/kg in rat; -26/-74
[3] = system: Rattus norvegicus; test: Percent change in volume of foot edema of test compound to that of positive control was determined at a dose of 10 mg/kg in rat; -34/-77
[4] = system: Rattus norvegicus; test: Percent change in volume of foot edema of test compound to that of positive control was determined at a dose of 31.6 mg/kg in rat; -67/-63
[5] = system: Rattus norvegicus; test: Percent change in volume of foot edema of test compound to that of positive control was determined at a dose of 10 mg/kg in rat; -40/-81
[6] = system: Rattus norvegicus; test: Percent change in volume of foot edema of test compound to that of positive control was determined at a dose of 31.6 mg/kg in rat; -79/-81
[7] = system: Rattus norvegicus; test: Percent change in volume of foot edema of test compound to that of positive control was determined at a dose of 3.16 mg/kg in rat; -9/-69
[8] = system: Rattus norvegicus; test: Percent change in volume of foot edema of test compound to that of positive control was determined at a dose of 31.6 mg/kg in rat; -82/69
[9] = system: Rattus norvegicus; test: Percent change in volume of foot edema of test compound to that of positive control was determined at a dose of 10 mg/kg in rat; -56/-69
[10] = system: Rattus norvegicus; test: Percent change in volume of foot edema of test compound to that of positive control was determined at a dose of 31.6 mg/kg in rat; -90/-83
[11] = system: Rattus norvegicus; test: Percent change in volume of foot edema of test compound to that of positive control was determined at a dose of 3.16 mg/kg in rat; -32/-78
[12] = system: Rattus norvegicus; test: Percent change in volume of foot edema of test compound to that of positive control was determined at a dose of 10 mg/kg in rat; -46/-83
[13] = system: Rattus norvegicus; test: Percent change in volume of foot edema of test compound to that of positive control was determined at a dose of 10 mg/kg in rat; -36/-88
[14] = system: Rattus norvegicus; test: Percent change in volume of foot edema of test compound to that of positive control was determined at a dose of 10 mg/kg in rat; -39/-72
[15] = system: Rattus norvegicus; test: Percent change in volume of foot edema of test compound to that of positive control was determined at a dose of 31.6 mg/kg in rat; -57/-83
[16] = system: Rattus norvegicus; test: Percent change in volume of foot edema of test compound to that of positive control was determined at a dose of 3.16 mg/kg in rat; -18/-77
[17] = system: Rattus norvegicus; test: Percent change in volume of foot edema of test compound to that of positive control was determined at a dose of 31.6 mg/kg in rat; -88/-63
[18] = system: Rattus norvegicus; test: Percent change in volume of foot edema of test compound to that of positive control was determined at a dose of 10 mg/kg in rat; -53/-77
[19] = system: Rattus norvegicus; test: Percent change in volume of foot edema of test compound to that of positive control was determined at a dose of 10 mg/kg in rat; -38/-69
[20] = system: Rattus norvegicus; test: Percent change in volume of foot edema of test compound to that of positive control was determined at a dose of 31.6 mg/kg in rat; -73/-68
[21] = system: Rattus norvegicus; test: Percent change in volume of foot edema of test compound to that of positive control was determined at a dose of 3.16 mg/kg in rat; -13/-73
[22] = system: Rattus norvegicus; test: Percent change in volume of foot edema of test compound to that of positive control was determined at a dose of 10 mg/kg in rat; -43/-77
[23] = system: Rattus norvegicus; test: Percent change in volume of foot edema of test compound to that of positive control was determined at a dose of 31.6 mg/kg in rat; -65/-78
[24] = system: Rattus norvegicus; test: Percent change in volume of foot edema of test compound to that of positive control was determined at a dose of 31.6 mg/kg in rat; -27/-65
[25] = system: Rattus norvegicus; test: Percent change in volume of foot edema of test compound to that of positive control was determined at a dose of 31.6 mg/kg in rat; -69/-78
[26] = system: Rattus norvegicus; test: Percent change in volume of foot edema of test compound to that of positive control was determined at a dose of 10 mg/kg in rat; +3/-73
[27] = system: Rattus norvegicus; test: Percent change in volume of foot edema of test compound to that of positive control was determined at a dose of 31.6 mg/kg in rat; +7/-47
[28] = system: Rattus norvegicus; test: Percent change in volume of foot edema of test compound to that of positive control was determined at a dose of 31.6 mg/kg in rat; -85/-82
[29] = system: Rattus norvegicus; test: Percent change in volume of foot edema of test compound to that of positive control was determined at a dose of 10 mg/kg in rat; -50/-80
[30] = system: Rattus norvegicus; test: Percent change in volume of foot edema of test compound to that of positive control was determined at a dose of 3.16 mg/kg in rat; -34/-79
[31] = system: Rattus norvegicus; test: Percent change in volume of foot edema of test compound to that of positive control was determined at a dose of 10 mg/kg in rat; -29/-62
[32] = system: Rattus norvegicus; test: Percent change in volume of foot edema of test compound to that of positive control was determined at a dose of 31.6 mg/kg in rat; -65/-69

SMILES: O=C(O)/C=C\C(=O)O.c1ccc(OCCCCN2CCN(c3ccccc3)CC2)cc1
- PFA [1]: -42

SMILES: COc1cc(N2CCN(CCC(O)COc3ccccc3)CC2)cc(OC)c1OC.O=C(O)C(=O)O (stereo not drawn)
- PFA [2]: -26

SMILES: COc1ccc(N2CCN(CCC(O)COc3ccccc3)CC2)cc1 (stereo not drawn)
- PFA [3]: -34
- PFA [4]: -67

SMILES: COc1ccc(N2CCN(CCC(O)COc3ccc(Cl)cc3)CC2)cc1.Cl.Cl (stereo not drawn)
- PFA [5]: -40
- PFA [6]: -79

SMILES: NC(=O)c1ccc(OCC(O)CCN2CCN(c3ccc(F)cc3)CC2)cc1 (stereo not drawn)
- PFA [7]: -9
- PFA [8]: -82
- PFA [9]: -56

SMILES: Cl.NC(=O)c1ccc(OCC(O)CCN2CCN(c3ccccc3)CC2)cc1 (stereo not drawn)
- PFA [10]: -90
- PFA [11]: -32
- PFA [12]: -46

SMILES: Cc1cc(OCC(O)CCN2CCN(c3ccccn3)CC2)ccc1Cl.Cl.Cl (stereo not drawn)
- PFA [6]: -79
- PFA [13]: -36

SMILES: CC(C)(C)c1ccc(OCC(O)CCN2CCN(c3ccccc3)CC2)cc1.Cl (stereo not drawn)
- PFA [14]: -39
- PFA [15]: -57

SMILES: OC(CCN1CCN(c2ccc(F)cc2)CC1)COc1ccccc1 (stereo not drawn)
- PFA [16]: -18
- PFA [17]: -88
- PFA [18]: -53

SMILES: NC(=O)c1ccc(OCC(O)CCN2CCN(c3ccccn3)CC2)cc1 (stereo not drawn)
- PFA [19]: -38
- PFA [20]: -73
- PFA [21]: -13

SMILES: OC(CCN1CCN(c2ccc(Cl)cc2)CC1)COc1ccccc1 (stereo not drawn)
- PFA [22]: -43
- PFA [23]: -65

SMILES: OC(CCN1CCN(c2ccccc2Cl)CC1)COc1ccccc1 (stereo not drawn)
- PFA [24]: -27

SMILES: COc1cccc(N2CCN(CCC(O)COc3ccccc3)CC2)c1 (stereo not drawn)
- PFA [25]: -69
- PFA [26]: 3

SMILES: OC(CCN1CCc2ccccc2C1)COc1ccccc1 (stereo not drawn)
- PFA [27]: 7

SMILES: Cc1ccc(N2CCN(CCC(O)COc3ccccc3)CC2)cc1 (stereo not drawn)
- PFA [28]: -85
- PFA [29]: -50
- PFA [30]: -34

SMILES: OC(CCN1CCN(c2ccccc2)CC1)COc1ccc(-c2ccccc2)cc1 (stereo not drawn)
- PFA [31]: -29
- PFA [32]: -65
